Data: ChEMBL document CHEMBL1145472, “Genetic basis of resistance to fusidic acid in staphylococci” (2007)
Values after ≈ are worked out from the molar mass of the structure shown.

Key:
Format in all cases: functional
[1] = system: Staphylococcus aureus; assay: Antimicrobial activity against methicillin-susceptible Staphylococcus aureus 476
[2] = system: Staphylococcus lugdunensis; assay: Antimicrobial activity against Staphylococcus lugdunensis 40869
[3] = system: Staphylococcus aureus; assay: Antimicrobial activity against Staphylococcus aureus RN4220 expressing pCU1 gene
[4] = system: Staphylococcus aureus; assay: Antimicrobial activity against Staphylococcus aureus RN4220 expressing pAJ96
[5] = system: Staphylococcus aureus; assay: Antimicrobial activity against Staphylococcus aureus RN4220 expressing pAJ96:fusB
[6] = system: Staphylococcus aureus; assay: Antimicrobial activity against Staphylococcus aureus RN4220 expressing (pAJ96:SAS0043) (fusC) gene
[7] = system: Staphylococcus aureus; assay: Antimicrobial activity against Staphylococcus aureus CS730
[8] = system: Staphylococcus aureus; assay: Antimicrobial activity against Staphylococcus aureus CS808
[9] = system: Staphylococcus aureus; assay: Antimicrobial activity against Staphylococcus aureus CS992
[10] = system: Staphylococcus aureus; assay: Antimicrobial activity against Staphylococcus aureus
[11] = system: Staphylococcus lugdunensis; assay: Antimicrobial activity against Staphylococcus lugdunensis 16641
[12] = system: Staphylococcus aureus; assay: Antimicrobial activity against Staphylococcus aureus CS979
[13] = system: Staphylococcus aureus; assay: Antimicrobial activity against Staphylococcus aureus 649 expressing pUB101
[14] = system: Staphylococcus aureus; assay: Antimicrobial activity against Staphylococcus aureus CS1083
[15] = system: Staphylococcus aureus; assay: Antimicrobial activity against Staphylococcus aureus CS805
[16] = system: Staphylococcus aureus; assay: Antimicrobial activity against Staphylococcus aureus RN4220 expressing (pCU1:SAS0043) (fusC) gene
[17] = system: Staphylococcus intermedius; assay: Antimicrobial activity against Staphylococcus intermedius CL2
[18] = system: Staphylococcus aureus; assay: Antimicrobial activity against Staphylococcus aureus CS1076
[19] = system: Staphylococcus aureus; assay: Antimicrobial activity against Staphylococcus aureus RN4220 expressing (pCU1:SSP2165) (fusD) gene
[20] = system: Staphylococcus lugdunensis; assay: Antimicrobial activity against Staphylococcus lugdunensis 16496
[21] = system: Staphylococcus aureus; assay: Antimicrobial activity against Staphylococcus aureus CS851
[22] = system: Staphylococcus aureus; assay: Antimicrobial activity against Staphylococcus aureus CS866
[23] = system: Staphylococcus aureus; assay: Antimicrobial activity against Staphylococcus aureus RN4220
[24] = system: Staphylococcus aureus; assay: Antimicrobial activity against Staphylococcus aureus CS957
[25] = system: Staphylococcus saprophyticus; assay: Antimicrobial activity against Staphylococcus saprophyticus ATCC 15305
[26] = system: Staphylococcus aureus; assay: Antimicrobial activity against Staphylococcus aureus RN4220 expressing pCU1:fusB gene
[27] = system: Staphylococcus lugdunensis; assay: Antimicrobial activity against Staphylococcus lugdunensis 31440
[28] = system: Staphylococcus aureus; assay: Antimicrobial activity against Staphylococcus aureus CS860
[29] = system: Staphylococcus aureus; assay: Antimicrobial activity against Staphylococcus aureus CS1128
[30] = system: Staphylococcus aureus; assay: Antimicrobial activity against Staphylococcus aureus CS602
[31] = system: Staphylococcus intermedius; assay: Antimicrobial activity against Staphylococcus intermedius CL1
[32] = system: Staphylococcus intermedius; assay: Antimicrobial activity against Staphylococcus intermedius NCTC 11048
[33] = system: Staphylococcus aureus; assay: Antimicrobial activity against Staphylococcus aureus RN4220 expressing (pAJ96:SSP2165) (fusD) gene

With `CC(=O)O[C@H]1C[C@@]2(C)[C@@H](C[C@@H](O)[C@H]3[C@@]4(C)CC[C@@H](O)[C@@H](C)[C@@H]4CC[C@@]32C)/C1=C(\CCC=C(C)C)C(=O)O` [FUSIDIC ACID] the MIC [1] was 8 µg/mL (≈ 15.5 µM), the MIC [2] was 0.064 µg/mL (≈ 0.124 µM) and the MIC [3] was 0.125 µg/mL (≈ 0.242 µM). It also gave an MIC [4] of 0.125 µg/mL (≈ 0.242 µM), an MIC [5] of 32 µg/mL (≈ 61.9 µM) and an MIC [6] of 16 µg/mL (≈ 31 µM). It also gave an MIC [7] of 3 µg/mL (≈ 5.81 µM), an MIC [8] of 3 µg/mL (≈ 5.81 µM) and an MIC [9] of 2 µg/mL (≈ 3.87 µM). For the same compound, the MIC [10] was 4 µg/mL (≈ 7.74 µM), the MIC [11] was 4 µg/mL (≈ 7.74 µM) and the MIC [12] was 4 µg/mL (≈ 7.74 µM). It also gave an MIC [13] of 16 µg/mL (≈ 31 µM), an MIC [14] of 4 µg/mL (≈ 7.74 µM) and an MIC [15] of 8 µg/mL (≈ 15.5 µM). It also gave an MIC [16] of 16 µg/mL (≈ 31 µM), an MIC [17] of 4 µg/mL (≈ 7.74 µM) and an MIC [18] of 8 µg/mL (≈ 15.5 µM). For the same compound, the MIC [19] was 2 µg/mL (≈ 3.87 µM), the MIC [20] was 4 µg/mL (≈ 7.74 µM) and the MIC [21] was 4 µg/mL (≈ 7.74 µM). It also gave an MIC [22] of 3 µg/mL (≈ 5.81 µM), an MIC [23] of 0.125 µg/mL (≈ 0.242 µM) and an MIC [24] of 3 µg/mL (≈ 5.81 µM). For the same compound, the MIC [25] was 2 µg/mL (≈ 3.87 µM), the MIC [26] was 16 µg/mL (≈ 31 µM) and the MIC [27] was 4 µg/mL (≈ 7.74 µM). It also gave an MIC [28] of 8 µg/mL (≈ 15.5 µM), an MIC [29] of 4 µg/mL (≈ 7.74 µM) and an MIC [30] of 4 µg/mL (≈ 7.74 µM). It also gave an MIC [31] of 4 µg/mL (≈ 7.74 µM), an MIC [32] of 0.064 µg/mL (≈ 0.124 µM) and an MIC [33] of 4 µg/mL (≈ 7.74 µM).
